Source: patent publication US8802678B2, “Carbonylated (aza) cyclohexanes as dopamine D3 receptor ligands” (Bioprojet, priority 2006, dated 2014)

Row | Compound | melting point [°C]
1 | N#CCC(=O)N[C@H]1CC[C@H](CCN2CCN(c3cc(F)c(F)cc3F)CC2)CC1 [Example 472, 2-Cyano-N-(4-{2-[4-(2,4,5-trifluorophenyl)piperazin-1-yl]ethyl}cyclohexyl)acetamide] | 188
2 | N#CCCCC(=O)N[C@H]1CC[C@H](CCN2CCN(c3cc(F)c(F)cc3F)CC2)CC1 [Example 473, 4-Cyano-N-(4-{2-[4-(2,4,5-trifluorophenyl)piperazin-1-yl]ethyl}cyclohexyl)butanamide] | 153
3 | CCOCC(=O)N[C@H]1CC[C@H](CCN2CCN(c3ccc(C)cc3)CC2)CC1 [Example 474, 2-Ethoxy-N-{4-[2-(4-p-tolylpiperazin-1-yl)ethyl]cyclohexyl}acetamide] | 130
4 | Cc1ccc(N2CCN(CC[C@H]3CC[C@H](NC(=O)C4=CCCC4)CC3)CC2)cc1 [Example 475, Cyclopent-1-enecarboxylic acid {4-[2-(4-p-tolylpiperazin-1-yl)ethyl]cyclohexyl} amide] | 227
5 | O=C(N[C@H]1CC[C@H](CCN2CCN(c3cccc(C(F)(F)F)c3F)CC2)CC1)C1=COCCC1 [Example 476] | 207
6 | CC(O)c1cccc(N2CCN(CC[C@H]3CC[C@H](NC(=O)CC(F)(F)F)CC3)CC2)c1 (some centres unmarked) [Example 477, 3,3,3-trifluoro-N-[4-(2-{4-[3-(1-hydroxyethyl)phenyl]piperazin-1-yl}ethyl)cyclohexyl]propanamide] | 190
7 | CCOCC(=O)N[C@H]1CC[C@H](CCN2CCN(c3cccc(C(F)(F)F)c3F)CC2)CC1 [Example 478, 2-Ethoxy-N-(4-{2-[4-(2-fluoro-3-trifluoromethylphenyl)piperazin-1-yl]ethyl}cyclohexyl)acetamide] | 125
8 | N#CCCCC(=O)N[C@H]1CC[C@H](CCN2CCN(c3ccc(Cl)cc3)CC2)CC1 [Example 479, N-(4-{2-[4-(4-Chlorophenyl)piperazin-1-yl]ethyl}cyclohexyl)-4-cyanobutanamide] | 190
9 | O=C(CC(F)(F)F)N[C@H]1CC[C@H](CCN2CCN(c3ccc(Cl)cc3)CC2)CC1 [Example 480, N-(4-{2-[4-(4-Chlorophenyl)-piperazin-1-yl]ethyl}cyclohexyl)-3,3,3-trifluoropropanamide] | 234
10 | CC(=O)CN1CCC(CCN2CCN(c3ccc(C)cc3F)CC2)CC1 [Example 482, 1-(4-{2-[4-(2-Fluoro-4-methylphenyl)piperazin-1-yl]ethyl}piperidin-1-yl)propan-2-one] | 65
11 | COc1ccc(C)cc1N1CCN(CC[C@H]2CC[C@H](NC(=O)CCCC#N)CC2)CC1 [Example 483, 4-Cyano-N-(4-{2-[4-(2-methoxy-5-methylphenyl)piperazin-1-yl]ethyl}cyclohexyl)butanamide] | 164
12 | Cc1ccc(N2CCN(CC[C@H]3CC[C@H](NC(=O)CC#N)CC3)CC2)c(F)c1 [Example 484, 2-Cyano-N-(4-{2-[4-(2-fluoro-4-methylphenyl)piperazin-1-yl]ethyl}cyclohexyl)acetamide] | 197
13 | Cc1ccc(N2CCN(CC[C@H]3CC[C@H](NC(=O)CCCC#N)CC3)CC2)c(F)c1 [Example 485, 4-Cyano-N-(4-{2-[4-(2-fluoro-4-methylphenyl)piperazin-1-yl]ethyl}cyclohexyl)butanamide] | 173
14 | O=C(N[C@H]1CC[C@H](CCN2CCN(c3ccc(Cl)c(Cl)c3)CC2)CC1)C1=CCCC1 [Example 486, Cyclopent-1-enecarboxylic acid (4-{2-[4-(3,4-dichlorophenyl)piperazin-1-yl]ethyl}cyclohexyl) amide] | 202
15 | CCOCC(=O)N[C@H]1CC[C@H](CCN2CCN(c3ccc(Cl)c(Cl)c3)CC2)CC1 [Example 487, N-(4-{2-[4-(3,4-Dichlorophenyl)piperazin-1-yl]ethyl}cyclohexyl)-2-ethoxyacetamide] | 112
16 | O=C(N[C@H]1CC[C@H](CCN2CCN(c3ccc(Cl)cc3)CC2)CC1)C1=CCCC1 [Example 488, Cyclopent-1-enecarboxylic acid (4-{2-[4-(4-chlorophenyl)-piperazin-1-yl]ethyl}cyclohexyl) amide] | 237
17 | Cc1ccc(N2CCN(CC[C@H]3CC[C@H](NC(=O)C4=CCCC4)CC3)CC2)cc1Cl [Example 491, Cyclopent-1-enecarboxylic acid (4-{2-[4-(3-chloro-4-methylphenyl)piperazin-1-yl]ethyl}cyclohexyl) amide] | 197
18 | Cc1ccc(N2CCN(CC[C@H]3CC[C@H](NC(=O)CC(F)(F)F)CC3)CC2)cc1Cl [Example 492, N-(4-{2-[4-(3-Chloro-4-methylphenyl)piperazin-1-yl]ethyl}cyclohexyl)-3,3,3-trifluoropropanamide] | 192
19 | Cc1ccc(N2CCN(CC[C@H]3CC[C@H](NC(=O)CC(F)(F)F)CC3)CC2)cc1 [Example 493, 3,3,3-Trifluoro-N-{4-[2-(4-p-tolylpiperazin-1-yl)ethyl]cyclohexyl}propanamide] | 217

Row | Compound | melting point [°C]
20 | O=C(N[C@H]1CC[C@H](CCN2CCN(c3ccc(F)cc3F)CC2)CC1)C1CC=CC1 [Example 494, Cyclopent-3-enecarboxylic acid (4-{2-[4-(2,4-difluorophenyl)-piperazin-1-yl]ethyl}cyclohexyl) amide] | 199
21 | CC(=O)CN1CCC(CCN2CCN(c3ccc(Cl)c(Cl)c3)CC2)CC1 [Example 495, 1-(4-{2-[4-(3,4-Dichlorophenyl)-piperazin-1-yl]ethyl}piperidin-1-yl)propan-2-one] | 114
22 | O=C(N[C@H]1CC[C@H](CCN2CCN(c3cccc(C(F)(F)F)c3F)CC2)CC1)C1=COCC1 [Example 497, 4,5-Dihydrofuran-3-carboxylic acid (4-{2-[4-(2-fluoro-3-trifluoromethylphenyl)piperazin-1-yl]ethyl}cyclohexyl) amide] | 192
23 | O=C(N[C@H]1CC[C@H](CCN2CCN(c3cccc(C(F)(F)F)c3F)CC2)CC1)[C@@H]1CCCN1 [Example 501, Pyrrolidine-2-carboxylic acid (4-{2-[4-(2-fluoro-3-trifluoro-methylphenyl)piperazin-1-yl]ethyl}cyclohexyl) amide] | 140
24 | COCCCC(=O)N[C@H]1CC[C@H](CCN2CCN(c3ccc(Cl)c(Cl)c3)CC2)CC1 [Example 502, N-(4-{2-[4-(3,4-Dichlorophenyl)piperazin-1-yl]ethyl}cyclohexyl)-4-methoxybutanamide] | 175
25 | CCOCC(=O)N[C@H]1CC[C@H](CCN2CCN(c3ccc(F)cc3F)CC2)CC1 [Example 503, N-(4-{2-[4-(2,4-Difluorophenyl)piperazin-1-yl]ethyl}cyclohexyl)-2-ethoxyacetamide] | 130
26 | COCCCC(=O)N[C@H]1CC[C@H](CCN2CCN(c3ccc(F)cc3F)CC2)CC1 [Example 504, N-(4-{2-[4-(2,4-Difluorophenyl)piperazin-1-yl]ethyl}cyclohexyl)-4-methoxybutanamide] | 185
27 | Cc1ccc(N2CCN(CC[C@H]3CC[C@H](NC(=O)CCCC#N)CC3)CC2)cc1C [Example 505, 4-Cyano-N-(4-{2-[4-(3,4-dimethylphenyl)piperazin-1-yl]ethyl}cyclohexyl)butanamide] | 172
28 | COCCCC(=O)N[C@H]1CC[C@H](CCN2CCN(c3ccc(C)c(C)c3)CC2)CC1 [Example 506, N-(4-{2-[4-(3,4-Dimethylphenyl)piperazin-1-yl]ethyl}cyclohexyl)-4-methoxybutanamide] | 161
29 | Cc1ccc(N2CCN(CC[C@H]3CC[C@H](NC(=O)C4=CCCC4)CC3)CC2)cc1C [Example 507, Cyclopent-1-enecarboxylic acid (4-{2-[4-(3,4-dimethylphenyl)-piperazin-1-yl]ethyl}cyclohexyl) amide] | 201
30 | CCOCC(=O)N[C@H]1CC[C@H](CCN2CCN(c3ccc(C)c(C)c3)CC2)CC1 [Example 508, N-(4-{2-[4-(3,4-Dimethylphenyl)piperazin-1-yl]ethyl}cyclohexyl)-2-ethoxyacetamide] | 122
31 | Cc1ccc(N2CCN(CC[C@H]3CC[C@H](NC(=O)CC(F)(F)F)CC3)CC2)cc1C [Example 509, N-(4-{2-[4-(3,4-Dimethylphenyl)piperazin-1-yl]ethyl}cyclohexyl)-3,3,3-trifluoropropanamide] | 199
32 | N#CCCCC(=O)N[C@H]1CC[C@H](CCN2CCN(c3ccc4c(c3)CCCC4)CC2)CC1 [Example 510, 4-Cyano-N-(4-{2-[4-(5,6,7,8-tetrahydronaphthalen-2-yl)piperazin-1-yl]ethyl}cyclohexyl)butanamide] | 170
33 | N#Cc1cccc(N2CCN(CC[C@H]3CC[C@H](NC(=O)CC(F)(F)F)CC3)CC2)c1 [Example 511, N-(4-{2-[4-(3-Cyanophenyl)piperazin-1-yl]ethyl}cyclohexyl)-3,3,3-trifluoropropanamide] | 180
34 | N#Cc1cccc(N2CCN(CC[C@H]3CC[C@H](NC(=O)C4=CCCC4)CC3)CC2)c1 [Example 512, Cyclopent-1-enecarboxylic acid (4-{2-[4-(3-cyanophenyl)-piperazin-1-yl]ethyl}cyclohexyl) amide] | 191
35 | COCCCC(=O)N[C@H]1CC[C@H](CCN2CCN(c3cccc(C#N)c3)CC2)CC1 [Example 513, N-(4-{2-[4-(3-Cyanophenyl)-piperazin-1-yl]ethyl}cyclohexyl)-4-methoxybutanamide] | 168
36 | CCOCC(=O)N[C@H]1CC[C@H](CCN2CCN(c3cc(C(F)(F)F)ccc3F)CC2)CC1 [Example 514, 2-Ethoxy-N-(4-{2-[4-(2-fluoro-5-trifluoromethylphenyl)piperazin-1-yl]ethyl}cyclohexyl)acetamide] | 128
37 | CCOCC(=O)N[C@H]1CC[C@H](CCN2CCN(c3ccc(Cl)cc3)CC2)CC1 [Example 515, N-(4-{2-[4-(4-Chloro-phenyl)piperazin-1-yl]ethyl}-cyclohexyl)-2-ethoxyacetamide] | 154
38 | CCCOCC(=O)N[C@H]1CC[C@H](CCN2CCN(c3cccc(C(F)(F)F)c3F)CC2)CC1 [Example 516, N-(4-{2-[4-(2-Fluoro-3-trifluoromethylphenyl)piperazin-1-yl]ethyl}cyclohexyl)-2-propoxyacetamide] | 102
